From ChEMBL document CHEMBL1201862, “PubChem BioAssay data set” (2004)
Blank lines part the entries; values can stand above or below the compound they belong to. Active and inactive are the calls of the source.

How the values were obtained:
[1] = biological target: T1, Sentrin-specific protease 7 (Homo sapiens, UniProt Q9BQF6); test: inhibition of human SENP7 cleavage activity – biochemical, luminescence, SAR follow-up (AID 504497); type: functional
T1 sequence (Q9BQF6 whole entry): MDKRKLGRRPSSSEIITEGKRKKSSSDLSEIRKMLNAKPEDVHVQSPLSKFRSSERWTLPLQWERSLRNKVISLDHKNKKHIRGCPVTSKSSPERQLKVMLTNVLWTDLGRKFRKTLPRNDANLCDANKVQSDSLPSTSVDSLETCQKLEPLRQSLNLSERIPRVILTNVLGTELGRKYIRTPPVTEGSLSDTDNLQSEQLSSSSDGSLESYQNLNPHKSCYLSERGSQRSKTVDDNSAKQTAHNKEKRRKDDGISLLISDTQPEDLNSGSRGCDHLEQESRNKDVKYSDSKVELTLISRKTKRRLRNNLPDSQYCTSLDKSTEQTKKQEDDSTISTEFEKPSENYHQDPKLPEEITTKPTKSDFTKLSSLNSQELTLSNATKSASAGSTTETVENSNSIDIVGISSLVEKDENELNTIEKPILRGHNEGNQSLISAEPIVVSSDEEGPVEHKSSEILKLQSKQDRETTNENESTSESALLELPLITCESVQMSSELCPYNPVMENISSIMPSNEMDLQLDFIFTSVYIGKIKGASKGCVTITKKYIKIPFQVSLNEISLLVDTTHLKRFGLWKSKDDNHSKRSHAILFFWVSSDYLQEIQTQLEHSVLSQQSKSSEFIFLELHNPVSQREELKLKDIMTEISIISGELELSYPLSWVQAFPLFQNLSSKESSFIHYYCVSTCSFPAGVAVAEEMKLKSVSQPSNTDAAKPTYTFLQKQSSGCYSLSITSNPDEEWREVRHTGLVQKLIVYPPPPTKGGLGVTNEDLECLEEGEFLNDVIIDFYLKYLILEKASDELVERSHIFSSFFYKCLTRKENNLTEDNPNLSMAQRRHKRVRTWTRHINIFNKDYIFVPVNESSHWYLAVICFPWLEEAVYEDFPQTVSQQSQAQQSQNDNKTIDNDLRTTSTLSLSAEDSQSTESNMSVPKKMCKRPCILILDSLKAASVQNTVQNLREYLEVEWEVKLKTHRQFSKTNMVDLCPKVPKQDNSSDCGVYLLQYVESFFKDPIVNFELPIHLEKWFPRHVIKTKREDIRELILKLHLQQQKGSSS

Caspase-3 [2] = biological target: T2, Caspase-3 (Homo sapiens, UniProt P42574); test: SAR Analysis of small molecule inhibitors of Sentrin-specific proteases (SENPs) using a Caspase-3 Selectivity assay. [Related pubchem assays (depositor defined):AID2540, AID2599, AID434973, AID489001]; type: functional
T2 sequence (P42574 whole entry): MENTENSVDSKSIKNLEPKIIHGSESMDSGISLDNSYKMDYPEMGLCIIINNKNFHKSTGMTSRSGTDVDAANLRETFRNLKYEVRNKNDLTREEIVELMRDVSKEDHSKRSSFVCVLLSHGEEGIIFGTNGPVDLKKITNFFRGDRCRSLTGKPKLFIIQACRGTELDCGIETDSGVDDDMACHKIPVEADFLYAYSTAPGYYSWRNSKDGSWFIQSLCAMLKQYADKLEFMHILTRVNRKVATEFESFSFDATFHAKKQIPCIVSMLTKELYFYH

[3] = biological target: T3, Sentrin-specific protease 6 (Homo sapiens, UniProt Q9GZR1); test: inhibition of human SENP6 catalytic domain – biochemical, luminescence, set 2, SAR follow-up (AID 588598); type: functional
T3 sequence (Q9GZR1 whole entry): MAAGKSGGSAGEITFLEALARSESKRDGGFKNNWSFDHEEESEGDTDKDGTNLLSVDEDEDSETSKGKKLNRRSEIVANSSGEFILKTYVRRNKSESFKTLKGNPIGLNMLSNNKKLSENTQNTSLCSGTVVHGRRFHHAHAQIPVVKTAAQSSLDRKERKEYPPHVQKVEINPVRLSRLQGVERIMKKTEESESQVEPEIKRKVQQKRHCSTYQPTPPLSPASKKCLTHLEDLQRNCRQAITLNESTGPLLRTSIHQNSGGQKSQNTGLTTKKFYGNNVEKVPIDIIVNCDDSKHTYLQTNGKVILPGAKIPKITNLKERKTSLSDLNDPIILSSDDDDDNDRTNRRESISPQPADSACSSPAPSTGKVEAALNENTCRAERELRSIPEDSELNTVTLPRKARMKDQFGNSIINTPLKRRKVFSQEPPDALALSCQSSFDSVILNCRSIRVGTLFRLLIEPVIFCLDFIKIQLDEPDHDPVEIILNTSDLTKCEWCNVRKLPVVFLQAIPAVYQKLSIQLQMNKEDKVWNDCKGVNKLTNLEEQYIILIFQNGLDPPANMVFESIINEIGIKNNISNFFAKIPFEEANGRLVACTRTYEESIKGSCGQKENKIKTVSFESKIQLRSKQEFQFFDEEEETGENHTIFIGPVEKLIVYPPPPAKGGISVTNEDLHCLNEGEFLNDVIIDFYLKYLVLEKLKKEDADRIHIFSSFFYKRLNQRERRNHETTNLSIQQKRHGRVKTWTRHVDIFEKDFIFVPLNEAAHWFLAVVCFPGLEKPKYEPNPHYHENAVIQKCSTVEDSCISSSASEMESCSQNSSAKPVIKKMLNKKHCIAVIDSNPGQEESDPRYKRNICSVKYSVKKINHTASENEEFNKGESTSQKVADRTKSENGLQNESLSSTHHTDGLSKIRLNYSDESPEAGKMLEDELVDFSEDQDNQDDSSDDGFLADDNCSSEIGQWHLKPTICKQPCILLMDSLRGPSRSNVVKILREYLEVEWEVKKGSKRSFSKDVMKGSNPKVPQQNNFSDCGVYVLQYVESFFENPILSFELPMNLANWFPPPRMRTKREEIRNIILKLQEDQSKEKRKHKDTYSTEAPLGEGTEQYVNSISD

[4] = biological target: T1, Sentrin-specific protease 7; test: inhibition of human SENP7 cleavage activity – biochemical, luminescence, set 2, SAR follow-up (AID 588600); type: functional
Caspase-3 [5] = biological target: T2, Caspase-3; test: inhibition of recombinant caspase-3 activity – biochemical, luminescence, set 2, selectivity assay for SENP protease inhibitor project, SAR follow-up (AID 588599); type: functional
[6] = biological target: T4, Sentrin-specific protease 8 (Homo sapiens, UniProt Q96LD8); test: inhibition of sentrin protease 8 – biochemical, luminescence, set 2, SAR follow-up (AID 588601); type: functional
T4 sequence (Q96LD8 whole entry): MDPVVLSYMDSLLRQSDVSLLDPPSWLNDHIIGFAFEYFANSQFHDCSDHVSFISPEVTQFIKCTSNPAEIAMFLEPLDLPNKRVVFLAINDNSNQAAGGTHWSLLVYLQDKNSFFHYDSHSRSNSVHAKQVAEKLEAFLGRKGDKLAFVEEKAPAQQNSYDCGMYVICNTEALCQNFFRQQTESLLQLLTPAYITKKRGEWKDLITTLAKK

[7] = biological target: T4, Sentrin-specific protease 8; test: inhibition of human SENP8 cleavage activity – biochemical, luminescence, SAR follow-up (AID 504501); type: functional
[8] = biological target: T3, Sentrin-specific protease 6; test: SAR Analysis of small molecule inhibitors of Sentrin-specific protease 6 (SENP6) using a Luminescent assay. [Related pubchem assays (depositor defined):AID2582, AID2599]; type: functional
[9] = biological target: DNA dC->dU-editing enzyme APOBEC-3A (Homo sapiens, UniProt P31941); test: SAR analysis of small molecule inhibitors of APOBEC3A DNA Deaminase via a fluorescence-based single-stranded DNA deaminase assay.; type: functional; conditions: read-out: IC50_Mean
Chain of DNA dC->dU-editing enzyme APOBEC-3A (P31941 whole entry): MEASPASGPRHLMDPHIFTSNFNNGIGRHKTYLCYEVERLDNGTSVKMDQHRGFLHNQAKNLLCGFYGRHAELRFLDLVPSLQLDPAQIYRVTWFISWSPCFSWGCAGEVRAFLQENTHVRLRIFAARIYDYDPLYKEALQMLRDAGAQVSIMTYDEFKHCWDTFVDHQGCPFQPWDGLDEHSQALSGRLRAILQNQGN

[10] = biological target: DNA dC->dU-editing enzyme APOBEC-3G (Homo sapiens, UniProt Q9HC16); test: inhibition of APOBEC3G ssDNA deamination – biochemical, fluorescence, single-stranded DNA substrate, SAR follow-up (AID 602136); type: functional; conditions: read-out: IC50_Mean
Chain of DNA dC->dU-editing enzyme APOBEC-3G (Q9HC16 whole entry): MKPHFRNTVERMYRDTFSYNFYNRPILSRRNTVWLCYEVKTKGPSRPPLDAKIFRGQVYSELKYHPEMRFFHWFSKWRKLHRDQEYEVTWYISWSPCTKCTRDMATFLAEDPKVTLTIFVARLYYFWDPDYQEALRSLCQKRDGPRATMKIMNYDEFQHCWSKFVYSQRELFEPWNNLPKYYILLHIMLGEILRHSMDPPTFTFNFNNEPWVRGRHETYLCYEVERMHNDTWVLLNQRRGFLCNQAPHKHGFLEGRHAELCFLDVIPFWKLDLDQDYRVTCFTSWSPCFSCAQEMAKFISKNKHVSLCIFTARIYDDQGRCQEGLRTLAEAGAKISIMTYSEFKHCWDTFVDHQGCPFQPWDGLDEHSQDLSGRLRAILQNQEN

[11] = biological target: Latent membrane protein 1 (Human herpesvirus 4 (strain B95-8), UniProt P03230); test: LMP1 TES1 pathway selectivity over dsRED control – imaging, HEK293T, dual-color eGFP/dsRED, cherry-picks, selectivity assay for LMP1 NF-kB inhibitor project, dose response (AID 588398); type: functional, cell-based
Chain of Latent membrane protein 1 (P03230 whole entry): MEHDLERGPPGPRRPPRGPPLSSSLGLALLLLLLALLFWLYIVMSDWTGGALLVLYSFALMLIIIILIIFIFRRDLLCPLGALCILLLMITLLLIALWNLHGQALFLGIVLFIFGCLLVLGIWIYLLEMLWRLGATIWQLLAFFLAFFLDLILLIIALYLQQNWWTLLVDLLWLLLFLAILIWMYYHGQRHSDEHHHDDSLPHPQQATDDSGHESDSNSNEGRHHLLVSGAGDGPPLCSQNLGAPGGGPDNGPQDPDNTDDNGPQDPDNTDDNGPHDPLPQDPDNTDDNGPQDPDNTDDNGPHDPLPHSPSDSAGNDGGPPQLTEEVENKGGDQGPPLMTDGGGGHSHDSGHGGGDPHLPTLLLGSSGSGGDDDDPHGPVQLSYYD

[12] = non-specific 3'UTR reporter inhibition in Clone20-Shn3RL – cell-based, Renilla luciferase, cherry-picked, counter-screen for Shn3 inhibitor project, dose response (AID 624133); type: functional
[13] = loss of viability in HepG2 cells – cell-based, CellTiter-Glo, cherry-picked, cytotoxicity control for Shn3 inhibitor project, dose response (AID 624134); type: functional
[14] = reduction of Shn3 3'UTR-driven luciferase in osteoblasts – cell-based, Clone20 osteoblasts, firefly luciferase, cherry-picked, dose response (AID 624132); type: functional;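 also: firefly luciferase luminescence from reporter carrying the Shn3 3'UTR in osteoblasts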
HEK293 = test: EBV LMP1 TES2 canonical NF-kB signalling blockers – cell-based, HEK293, luciferase, cherry-pick, dose response (AID 588343); type: functional; conditions: Homo sapiens
[15] = biological target: COUP transcription factor 2 (Homo sapiens, UniProt P24468); test: Luminescence-based cell-based high throughput dose response assay to identify inhibitors of COUP-TFII (NR2F2).; type: functional;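 also: HEK293 cells transiently cotransfected with COUP-TFII expression vector and reporter; luciferase reporter luminescence driven by COUP-TFII from the pX2-168 reporter plasmid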
Chain of COUP transcription factor 2 (P24468 whole entry): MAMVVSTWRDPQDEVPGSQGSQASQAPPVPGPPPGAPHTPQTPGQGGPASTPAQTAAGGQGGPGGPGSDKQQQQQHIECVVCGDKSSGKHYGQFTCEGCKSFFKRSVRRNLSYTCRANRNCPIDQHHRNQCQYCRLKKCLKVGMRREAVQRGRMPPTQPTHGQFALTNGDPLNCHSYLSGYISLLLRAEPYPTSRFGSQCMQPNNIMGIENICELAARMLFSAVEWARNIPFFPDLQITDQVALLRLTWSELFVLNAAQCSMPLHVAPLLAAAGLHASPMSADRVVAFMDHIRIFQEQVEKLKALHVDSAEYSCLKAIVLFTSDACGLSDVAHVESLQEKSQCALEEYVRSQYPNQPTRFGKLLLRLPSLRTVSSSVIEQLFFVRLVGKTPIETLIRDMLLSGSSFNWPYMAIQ

IC50 [1]: 6.4 µM (active)
IC50 (Caspase-3 [2]): 51 µM (active)
IC50 [3]: 8.58 µM (active)
IC50 [4]: 29.4 µM (active)
IC50 (Caspase-3 [5]): 68.4 µM (active)
IC50 [8]: > 99 µM (inactive)
Compound: CCCCc1ccc2nc(NC(=O)c3cc(C)cs3)sc2c1
IC50 [6]: 8.25 µM (active)
IC50 [7]: > 99 µM (inactive)

Compound: Fc1ccc(Nc2nc(Nc3ccc(Cl)c(Cl)c3)nc(N3CCOCC3)n2)cc1
IC50 [9]: > 99 µM (inactive)
IC50 [10]: > 99 µM (inactive)

Compound: O=C(NC1CCCCCCC1)c1cc(COc2ccc3ncccc3c2)on1
AC50 [11]: 60.1 µM (active)
AC50 [12]: 11.8 µM (active)
AC50 [13]: 2.97 µM (active)
AC50 [14]: 1.06 µM (active)
AC50 (HEK293): 39.6 µM (active)
IC50 [15]: 4.41 µM (active)
